# According to patent publication US6566374B1, “Method of treating or preventing microbial infections with loperamide” (priority 1998, dated 2003):
# Key:
# Type in all cases: cell-based
# [1] = tested on: Micrococcus luteus NCIB 8166; assay: Nominal Inhibitory Concentration (spiral plater); conditions: 24 hrs BA 37° C.
# Experimental: (§1) A broth, appropriate to the microorganism to be tested (see Table 1 below), was inoculated aseptically from a pure plate culture and then incubated as indicated in Table 1.
# (§2) Following the correct incubation, the liquid culture was diluted in a sterile saline solution to give approximately 10^5 to 10^6 CFU/ml. The suspension was serially diluted and spread plates were prepared for each dilution so as to obtain an accurate CFU/ml value.
# (§3) The spiral plater was prepared by passing one cupule of IMS followed by one cupule of sterile water through the plater with the valve open and vacuum pump on. With the spiral plater cam on “Linear Deposition”, the suspension of micoorganism to be tested was placed in a new cupule. The suspension was taken up, ensuring that the glass tube was full, and the organisms were then deposited in an even spiral onto agar plates.
# (§4) The depth of the agar was measured on the plates and this value recorded. Negative control plates with no added active were produced in triplicate.
# (§5) The spiral plater was washed with one cupule of IMS and one cupule of sterile deionised water in-between the inoculation of different microbial samples. Once the microbial inocula had dried, the spiral plater was washed and the cam changed to “Gradient Deposition”. The antimicrobial solution was deposited in a spiral gradient directly on top of the dried inoculated spiral. Loperamide hydrochloride was used at concentrations of 1% and 0.3% made up in 50% dimethyl sulphoxide.
# (§6) The spiral plater was washed with one cupule of IMS and one of sterile deionised water in-between different antimicrobial solutions. The solutions were left to dry before being incubated, at 37° C. for 24 hr, +/−6 hr or 48 hr +/−6 hr for anaerobes (see Table 1).
# (§7) Following incubation, the control plates were checked to have grown to the end of the spiral inoculum. Digital calipers were used to measure the distance between the inoculation point and the point where confluent growth starts. The distance value termed the Radial Advance was used to determine the Deposition Factor (DF). The NIC can be calculated from the following formula:
# (§8) NIC=Nominal Inhibitory Concentration (e.g. ppm)
# (§9) SC=Stock concentration of antimicrobial (e.g. ppm)
# (§10) ha=height of agar in plate (mm)
# [2] = tested on: Fusobacterium nucleatum NCTC 10562; assay: Nominal Inhibitory Concentration (spiral plater); conditions: 48 hrs BA 37° C. (anaerobically)
# Experimental: as §1, §2, §3, §4, §5, §6, §7, §8, §9, §10
# [3] = tested on: Pseudomonas aeruginosa ATCC 9027; assay: Nominal Inhibitory Concentration (spiral plater); conditions: 24 hrs BA 37° C.
# Experimental: as §1, §2, §3, §4, §5, §6, §7, §8, §9, §10
# [4] = tested on: Staphylococcus epidermidis ATCC 8853; assay: Nominal Inhibitory Concentration (spiral plater); conditions: 24 hrs TSA 37° C.
# Experimental: as §1, §2, §3, §4, §5, §6, §7, §8, §9, §10
# [5] = tested on: Sphingomonas paucimobilis NCTC 11030; assay: Nominal Inhibitory Concentration (spiral plater); conditions: 24 hrs BA 37° C.
# Experimental: as §1, §2, §3, §4, §5, §6, §7, §8, §9, §10
# [6] = tested on: Escherichia coli NCTC 8545; assay: Nominal Inhibitory Concentration (spiral plater); conditions: 24 hrs BA 37° C.
# Experimental: as §1, §2, §3, §4, §5, §6, §7, §8, §9, §10
# [7] = tested on: Lactobacillus acidophillus NCTC 4505; assay: Nominal Inhibitory Concentration (spiral plater); conditions: 24 hrs BA 37° C.
# Experimental: as §1, §2, §3, §4, §5, §6, §7, §8, §9, §10
# [8] = tested on: Pseudomonas stutzeri NCTC 10475; assay: Nominal Inhibitory Concentration (spiral plater); conditions: 24 hrs BA 37° C.
# Experimental: as §1, §2, §3, §4, §5, §6, §7, §8, §9, §10
# [9] = tested on: Staphylococcus aureus ATCC 6538; assay: Nominal Inhibitory Concentration (spiral plater); conditions: 24 hrs TSA 37° C.
# Experimental: as §1, §2, §3, §4, §5, §6, §7, §8, §9, §10
# [10] = tested on: Streptococcus mutans NCTC 11061; assay: Nominal Inhibitory Concentration (spiral plater); conditions: 24 hrs BA 37° C.
# Experimental: as §1, §2, §3, §4, §5, §6, §7, §8, §9, §10
# [11] = tested on: Propionibacterium acnes NCTC 737; assay: Nominal Inhibitory Concentration (spiral plater); conditions: 48 hrs BA 37° C. anaerobically, loperamide hydrochloride 1% and 0.3% in 50% dimethyl sulphoxide
# Experimental: as §1, §2, §3, §4, §5, §6, §7, §8, §9, §10
# [12] = tested on: Streptococcus sanguis NCTC 10904; assay: Nominal Inhibitory Concentration (spiral plater); conditions: 24 hrs BA 37° C.
# Experimental: as §1, §2, §3, §4, §5, §6, §7, §8, §9, §10
# [13] = tested on: Candida albicans NCYC 1363; assay: Nominal Inhibitory Concentration (spiral plater); conditions: 24 hrs SDA 37° C.
# Experimental: as §1, §2, §3, §4, §5, §6, §7, §8, §9, §10
# [14] = tested on: Streptococcus oralis NCTC 11427; assay: Nominal Inhibitory Concentration (spiral plater); conditions: 24 hrs BA 37° C.
# Experimental: as §1, §2, §3, §4, §5, §6, §7, §8, §9, §10
# [15] = tested on: Bacillus subtilis ATCC 6633; assay: Nominal Inhibitory Concentration (spiral plater); conditions: 24 hrs BA 37° C.
# Experimental: as §1, §2, §3, §4, §5, §6, §7, §8, §9, §10
# [16] = tested on: Pseudomonas cepacia ATCC 25416; assay: Nominal Inhibitory Concentration (spiral plater); conditions: 24 hrs BA 37° C.
# Experimental: as §1, §2, §3, §4, §5, §6, §7, §8, §9, §10
# [17] = tested on: S. mutans, S. sanguis, S. aureus, C. albicans, Methicillin resistant S. aureus, P. acnes; assay: Effective kill times of antimicrobial solutions; conditions: loperamide in 2.5% dimethyl sulphoxide; sampled at 30 seconds, 1, 2 and 5 minutes; data only in FIGS. 1-6
# Experimental: A suitable broth culture of the test organism was prepared (see Table 3 below). Cultures were diluted (1:10) using a Ringer and Peptone solution. 30 ml volumes of loperamide made up in 2.5% dimethyl sulphoxide were prepared. The samples were then inoculated with 30 ml of the initial microorganism suspension, and at time intervals of 30 seconds, 1, 2 and 5 minutes, 1 ml of the sample was removed and added to 9 ml of Dey-Engley neutralizing broth. Two further serial dilutions were then prepared.
# 0.1 ml from the Dey-Engley broths and subsequent dilutions were spread plated and then incubated. See Table 3 below for the appropriate agar and incubation conditions.
smiles,measurement,setting,value
"CN(C)C(=O)C(CCN1CCC(O)(c2ccc(Cl)cc2)CC1)(c1ccccc1)c1ccccc1 [Loperamide, 4-(p-chlorophenyl)-4-hydroxy-N,N-dimethyl-α,α-diphenyl-1-piperidinebutyramide]",NIC,[1],9 ppm
same,NIC,[2],7 ppm
same,NIC,[3],>165 ppm
same,NIC,[4],33 ppm
same,NIC,[5],11 ppm
same,NIC,[6],>165 ppm
same,NIC,[7],18 ppm
same,NIC,[8],21 ppm
same,NIC,[9],34 ppm
same,NIC,[10],30 ppm
same,NIC,[11],16 ppm
same,NIC,[12],27 ppm
same,NIC,[13],39 ppm
same,NIC,[14],24 ppm
same,NIC,[15],9 ppm
same,NIC,[16],36 ppm
same,bactericidal properties (kill time),[17],good bactericidal properties
